Reference: US4774232A, “Bile-substituting method of treatment for the promotion of fat digestion” (Chinoin Gyogyszer Es Vegyeszeti Termak Ek Gyara Rt, priority 1985, dated 1988)

What was measured:
[1] = tested on: lipase (pancreas suspension); assay: In vitro enzymatic hydrolysis of triglycerides: olive oil, pancreas suspension; format: biochemical; conditions: for 0.005 N NaOH consumed: series Bile I, olive oil, pancreas suspension, 37° C.
Method: (§1) In an aqueous medium, lipase is capable to split triglycerides only at an extraordinarily low rate. Therefore, an organic solvent should be added to the system, by which the solubility of the triglycerides is increased, but the enzyme activity is diminished. Alternatively, some type of detergent, suitably bile has to be used. The effect of bile was compared to that of DIMEB at 37° C. in such a way that, the quantity of the formed free fatty acids in the samples taken from the reaction mixture at various intervals was titrated by using sodium hydroxide solution. The composition of the reaction mixture was as follows:
(§2) a total volume of 1.5 ml contained 4 μmoles of the substrate (triolein or olive oil), 10 mg of bovine serum albumin, 75 μmoles of sodium chloride, 50 μmoles of a phosphate buffer solution (pH 7.4) and 0.25 ml of an enzyme solution. A lipase of the Serva Company (in an 1 mg/10 ml solution) or a pancreas powder (0.5 g was suspended in 10 ml of distilled water and the slightly opalescent solution obtained after filtration was used) were employed as enzyme preparations.
(§3) The composition of the solutions to be tested were as follows:
(§4) 0.5 ml of buffer+10 mg of serum albumin+3.54 mg of substrate+0.25 ml of enzyme solution plus
(§5) (a) 0.25 ml of diluted bile+0.50 ml of distilled water; or
(§6) (b) 50 mg of dimethyl-β-cyclodextrin dissolved in 0.75 ml of water; or […]

[2] = tested on: lipase; assay: In vitro enzymatic hydrolysis of triglycerides: glycerol trioleate, lipase; format: biochemical; conditions: 37° C.
Method: as §1, §2, §3, §4, §5, §6

[3] = tested on: intact rats; assay: Lipid absorption in intact rats after oral vegetable oil with DIMEB; format: in vivo; conditions: for Plasma triglyceride concentration / Free fatty acid concentration in the plasma: normal rats; for Plasma triglyceride concentration: 2 ml vegetable oil + 50 mg DIMEB oral; for Free fatty acid concentration in the plasma: 2 ml vegetable oil + DIMEB oral
Method: The effect of DIMEB on the absorption of a vegetable oil was investigated in intact rats. The aim of this experiment was to elucidate whether the emulsification and intestinal absorption of the vegetable oil were stimulated by DIMEB in addition to the physiological bile functions. […] Thereafter, the triglyceride and free fatty acid concentration of the blood plasma were examined at various intervals. (Tables II and III). The triglyceride concentration of the plasma was determined by using the method of E. Van Handel [Clin. […] G. Dumcombe [Biochem.

[4] = tested on: mice; assay: Toxicity on mice; format: in vivo; conditions: doses up to 3000 mg/kg of body-weight
[5] = Absorption and elimination of DIMEB in animal experiments; format: in vivo

COC[C@H]1O[C@@H]2O[C@H]3[C@H](O)[C@@H](OC)[C@@H](O[C@H]4[C@H](O)[C@@H](OC)[C@@H](O[C@H]5[C@H](O)[C@@H](OC)[C@@H](O[C@H]6[C@H](O)[C@@H](OC)[C@@H](O[C@H]7[C@H](O)[C@@H](OC)[C@@H](O[C@H]8[C@H](O)[C@@H](OC)[C@@H](O[C@H]1[C@H](O)[C@H]2OC)O[C@@H]8COC)O[C@@H]7COC)O[C@@H]6COC)O[C@@H]5COC)O[C@@H]4COC)O[C@@H]3COC [DIMEB, heptakis(2,6-di-O-methyl)-β-cyclodextrin]
Effect on the action of lipase ([1]; in vitro, Table 1 overall): accelerate the action of lipase to a significant extent
0.005 N NaOH consumed ([1]; reaction time 0.5 hour): 1.74 mL
0.005 N NaOH consumed ([1]; reaction time 1 hour): 2.00 mL
0.005 N NaOH consumed ([1]; reaction time 2 hour): 2.20 mL
0.005 N NaOH consumed ([1]; reaction time 19 hour): 4.77 mL
0.005 N NaOH consumed ([2]; series Bile II, glycerol trioleate, reaction time 1 hour): 0.34 mL
0.005 N NaOH consumed ([2]; series Bile II, glycerol trioleate, reaction time 2 hour): 0.80 mL
0.005 N NaOH consumed ([2]; series Bile II, glycerol trioleate, reaction time 3 hour): 1.16 mL
0.005 N NaOH consumed ([2]; series Bile II, glycerol trioleate, reaction time 21 hour): 1.86 mL
0.005 N NaOH consumed ([2]; series Bile III, glycerol triolate, reaction time 1 hour): 0.28 mL
0.005 N NaOH consumed ([2]; series Bile III, glycerol triolate, reaction time 2 hour): 0.68 mL
0.005 N NaOH consumed ([2]; series Bile III, glycerol triolate, reaction time 4 hour): 1.20 mL
Increase of plasma triglyceride concentration ([3]; intact rats, oil + 50 mg DIMEB, 4th hour): more than 100%
Plasma triglyceride concentration ([3]; Hour 1): 44 ± 6 mg/100 ml
Plasma triglyceride concentration ([3]; Hour 2.5): 61 ± 18 mg/100 ml
Plasma triglyceride concentration ([3]; Hour 4): 121 ± 7 mg/100 ml
Plasma triglyceride concentration ([3]; Hour 6): 122 ± 15 mg/100 ml
Free fatty acid concentration in the plasma ([3]; Hour 1): 326 ± 15 mg/100 ml
Free fatty acid concentration in the plasma ([3]; Hour 2.5): 494 ± 183 mg/100 ml
Free fatty acid concentration in the plasma ([3]; Hour 4): 641 ± 126 mg/100 ml
Free fatty acid concentration in the plasma ([3]; Hour 6): 347 ± 65 mg/100 ml
Toxic phenomena [4]: no toxic phenomena
Time to complete elimination through the kidneys ([5]; after intravenous administration): ≤ 6 h
Absorption after oral administration ([5]; animal experiments, oral): not absorbed
